From US20220348615A1, “PRODUCTION OF BACTERIOCINS” (priority 2021, published 2022)
“And” between values parts separate entries of the source, which are not always exact repeats. Equal entries are not always repeated.

Tests used:
[1] = test system: L. lactis NZ9000/pNZ-Pnis-mCherry^Lla; assay: Nisin sensor strain mCherry fluorescence assay; assay type: cell-based, Lactococcus lactis; conditions: 96-well microtiter plate assay
Protocol: (B) A photo of the bacterial pellet taken after growth in GM17 medium containing 10 ng/ml nisin.
Black lines indicate absorbance at 214 nm in milli arbitrary units (mAU) and grey lines % of solution B in the elation buffer. Broken lines indicate the boundaries of the peak fractions collected for further analysis. (B) L. lactis NZ9000/pNZ-Pnis-mCherry^Lla was used to assay presence of nisin in different samples during purification of ammonium sulphate-precipitated supernatants of C. glutamicum CR099/pXMJ-nisZBTC^opt (SN: plain culture supernatant; precip: ammonium sulphate precipitated supernatant proteins; IEX: peak fraction of ion exchange chromatography; RP peak fraction of reverse phase chromatography. pos: 10 ng/ml nisin; +/−: activation by trypsin).
The sensitivity of the spot-on-lawn assay using C. glutamicum CR099 as an indicator strain is very low. […] The strain L. lactis NZ9000/pNZ-Pnis-mCherry^Lla contains the NisRK two-component system and harbours a pNZ-derives plasmid for expression the red-fluorescent protein mCherry from the Pnis promoter (FIG. 11A), which is activated by NisR in a strictly nisin-dependent manner. In this construct, the coding sequence of the mCherry protein is optimized for codon usage of L. lactis. The respective sensor strain results in reddish coloured bacteria after o/N growth in the presence of 10 ng mL^−1 (FIG. 11B). […]

[2] = test system: C. glutamicum CR099; assay: Resistance of C. glutamicum CR099 to antimicrobial peptides, endpoint growth in 96-well microtiter plates; assay type: cell-based, Corynebacterium glutamicum
Protocol: Values are mean±standard deviation of n=4-7 independent experiments. (B) Growth of C. glutamicum CR099 in standard batch culture in 2xTY medium with 2% Glc in the presence (+PA-1) or absence (−PA-1) of 2.0 μg/mL pediocin. Values are mean±standard deviation of n=4 independent experiments. Growth rates were calculated during exponential growth phase. (C) Growth inhibition of L. monocytogenes EGDe::pIMK2 by supernatants of C. glutamicum CR099 in 2xTY medium with 2% Glc plus 2 μg/mL pure pediocin (+CR099). Supernatants were collected during the experiment shown in (B) at the indicated time-points. As controls, pediocin was incubated under the same conditions in sterile medium (−CR099). Values are OD600 of the indicator strain L. monocytogenes EGDe in a growth assay at the indicated dilutions of the samples and are mean±standard deviation of n=3 independent experiments. […]
The receptors for bacteriocins of the pediocin family on target organisms are the IIC and IID subunits of a sub-family of mannose-specific phosphotransferase systems (PTS^Man; PMID: 19477899). […] To corroborate this assumption, the resistance of C. glutamicum CR099 against different antimicrobial peptides was determined using an endpoint measurement of growth in 96-well microtiter plates (FIG. 2A).

[3] = test system: C. glutamicum CR099; assay: Growth of C. glutamicum CR099 in standard batch culture with pediocin; assay type: cell-based, Corynebacterium glutamicum; conditions: 2 μg mL^−1 pediocin, baffled Erlenmeyer flask, 2xTY with 2% Glc
Protocol: (§1) Values are mean±standard deviation of n=4-7 independent experiments. (B) Growth of C. glutamicum CR099 in standard batch culture in 2xTY medium with 2% Glc in the presence (+PA-1) or absence (−PA-1) of 2.0 μg/mL pediocin. Values are mean±standard deviation of n=4 independent experiments. Growth rates were calculated during exponential growth phase. (C) Growth inhibition of L. monocytogenes EGDe::pIMK2 by supernatants of C. glutamicum CR099 in 2xTY medium with 2% Glc plus 2 μg/mL pure pediocin (+CR099). Supernatants were collected during the experiment shown in (B) at the indicated time-points. As controls, pediocin was incubated under the same conditions in sterile medium (−CR099). Values are OD600 of the indicator strain L. monocytogenes EGDe in a growth assay at the indicated dilutions of the samples and are mean±standard deviation of n=3 independent experiments. In all graphs, the bottom and top lines indicate OD600 of the positive (i.e. complete inhibition of growth) or negative (i.e. in the absence of an antimicrobial peptide), respectively. The broken middle lines represent growth inhibition of 50%, i.e. the threshold to calculate bacteriocin units.
By contrast, C. glutamicum CR099 was able to grow in the presence of at least 12.5 μg mL^−1 pediocin PA-1.

[4] = test system: L. monocytogenes EGDe::pIMK2; assay: Microtiter plate growth inhibition assay, L. monocytogenes indicator; assay type: cell-based, Listeria monocytogenes; conditions: serial 2-fold dilutions of pediocin standard
From the text: (§2) (B) Growth inhibition of L. monocytogenes EGDe::pIMK2 by supernatants of P. acidilactici 347 (Paci) collected in early stationary growth phase at the indicated dilution. Values are mean±standard deviation of at least n=3 independent experiments per condition. Dilution series sterile H2O (A) or MRS medium (B) were used as negative controls. Hatched bars indicate growth of the indicator strain without addition of diluted supernatant or pediocin, i.e. maximum growth. The bottom and top lines indicate OD600 of the positive (i.e. complete inhibition of growth) or negative (i.e. in the absence of an antimicrobial peptide), respectively. The broken middle line represents growth inhibition of 50%, i.e. the threshold to calculate bacteriocin units.
Pediocin PA-1 is a bacteriocin with potent antimicrobial activity against a range of Gram-positive microorganisms including important human pathogens such as Listeria monocytogenes. As a first step towards recombinant production of pediocin PA-1, a growth-dependent assay was established using L. monocytogenes EGDe::pIMK2 or L. innocua LMG2785::pIMK2 as indicator strains, and commercially available, purified pediocin (FIG. 1A). […]
(§3) To validate the assay, anti-microbial activity in supernatants of P. acidilactici 347, a natural producer of pediocin was measured following growth in MRS medium to early stationary growth phase (FIG. 1B). […]

[5] = test system: L. innocua LMG2785::pIMK2; assay: Microtiter plate growth inhibition assay, L. innocua indicator; assay type: cell-based, Listeria innocua; conditions: serial 2-fold dilutions of pediocin standard
From the text: as §2
2h after inoculation Glc (2% w/v) and IPTG (0.1 mM) were added to induce production of pediocin (B) Growth inhibition of L. innocua LMG2785::pIMK2 by different dilutions of supernatants of C. glutamicum CR099/pEKEx2-pedACD (pedACD) collected at the indicated timepoints during the growth experiment shown in (A). All values are mean±standard deviation of n=3 independent experiments. […]
as §3

[6] = test system: L. monocytogenes EGDe::pIMK2; assay: Pediocin activity remaining in culture supernatant during C. glutamicum CR099 cultivation; assay type: cell-based, Listeria monocytogenes
Protocol: as §1
Additionally, activity of pediocin was measured in the culture supernatant at select timepoints during the cultivation. […] The observed reduction in activity was therefore considered to be related to adsorption of the positively charged pediocin to the negative surface of bacteria and, at later timepoints, to oxidative inactivation.

Substance	limit of detection of the sensor strain for active nisin [1]	concentration above which growth of C. glutamicum CR099 is inhibited ([2]; preliminary experiments)	effect on final optical density and growth rate [3]	minimal concentration to completely inhibit growth of the indicator strain [4]	minimal concentration to completely inhibit growth of the indicator strain [5]	concentration in the presence of which C. glutamicum CR099 was able to grow ([2]; 96-well microtiter plates, endpoint growth)	pediocin activity in culture supernatant, initial ([6]; 2 μg/mL pediocin in growing C. glutamicum CR099 culture, start)	pediocin activity after 24 hours in control incubation ([6]; 2xTY without bacteria, 24 hours)	pediocin activity in culture supernatant after slight initial reduction ([6]; growing C. glutamicum CR099 culture, stable for several hours)	pediocin activity in culture supernatant after 24 hours ([6]; in the presence of C. glutamicum CR099, 24 hours)
nisin	0.2 to 0.5 ng/mL and 0.25 to 0.5 ng/mL	> 100 ng/mL								
pediocin PA-1 (KYYGNGVTCGKHSCSVDWGKATTCIINNGAMAWATGGHQGNHKC; listed as Pediococcus acidilactici) [commercially available, purified Class IIA bacteriocin]			did not affect final optical density and growth rate	39 ng/mL	39 ng/mL	at least 12.5 μg mL^−1	2560 BU mL^−1	the same reduction was observed	1280 BU mL^−1	160 BU mL^−1
